*1 amine or outer side, *2 acyl side, *3 side chain or, on linkers, in order; H or OH if unused. Where a SMILES comes first, the peptide text is derived from it. Side-chain parts run from the residue outwards. [ ]: non-standard residue; d: D form. βAsp = O=C(O)[C@H](CC(=O)[*:2])N[*:1]; NMeF = CN[C@@H](Cc1ccccc1)C(=O)O; CO = O=C([*:1])[*:2]

Consider two compounds from BindingDB's records for doi:10.1016/j.chembiol.2004.10.013 (University of Dundee, 2005).

Among the targets are Endochitinase B1 [A217G] (Aspergillus fumigatus, UniProt Q873X9, A217G); Endochitinase B1 [D175A] (Aspergillus fumigatus, UniProt Q873X9, D175A); Endochitinase B1 [E322A] (Aspergillus fumigatus, UniProt Q873X9, E322A); Endochitinase B1 [M243A] (Aspergillus fumigatus, UniProt Q873X9, M243A); Endochitinase B1 [R301K] (Aspergillus fumigatus, UniProt Q873X9, R301K); Endochitinase B1 [T138A] (Aspergillus fumigatus, UniProt Q873X9, T138A); Endochitinase B1 [Y245F] (Aspergillus fumigatus, UniProt Q873X9, Y245F).

What all share (test): Enzyme Inhibition Assay
In a further assay the target is T1, Chitinase B (Serratia marcescens, UniProt P11797).
T1 sequence (P11797 whole entry): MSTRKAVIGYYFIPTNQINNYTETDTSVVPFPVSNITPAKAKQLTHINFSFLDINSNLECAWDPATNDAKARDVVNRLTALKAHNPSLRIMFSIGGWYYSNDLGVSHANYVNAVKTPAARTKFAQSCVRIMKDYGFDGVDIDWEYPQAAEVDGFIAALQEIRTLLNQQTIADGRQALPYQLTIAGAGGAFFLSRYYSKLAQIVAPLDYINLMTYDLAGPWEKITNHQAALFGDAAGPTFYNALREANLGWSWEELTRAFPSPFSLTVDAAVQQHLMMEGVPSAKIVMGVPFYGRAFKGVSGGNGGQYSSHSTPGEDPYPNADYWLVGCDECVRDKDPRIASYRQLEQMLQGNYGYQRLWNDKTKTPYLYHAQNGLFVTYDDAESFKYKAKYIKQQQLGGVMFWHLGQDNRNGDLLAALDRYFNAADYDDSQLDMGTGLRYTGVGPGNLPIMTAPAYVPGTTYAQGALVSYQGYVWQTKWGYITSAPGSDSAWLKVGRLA
The note with it: pH 5.5; 37 °C.

In another assay the target is Endochitinase B1 (Aspergillus fumigatus, UniProt Q873X9). The following applies: for IC50: pH 5.5, 37 °C.

For the compound `CNC(=O)NC(=N)NCCC[C@@H]1NC(=O)[C@@H](C)NC(=O)C[C@@H](C(=O)O)NC(=O)C[C@@H](C(=O)O)NC(=O)[C@H](Cc2ccccc2)N(C)C1=O` [(2R,5S,8S,11S,15S)-8-benzyl-2,7-dimethyl-5-[3-({[(methylcarbamoyl)amino]methanimidoyl}amino)propyl]-3,6,9,13,17-pentaoxo-1,4,7,10,14-pentaazacycloheptadecane-11,15-dicarboxylic acid] (cyclo([NMeF][βAsp][βAsp][dA]R([CO-NHMe]))), the inhibition constant (Ki) on Chitinase B was 33000 nM. Moreover, the Kd is 460 nM on Endochitinase B1; 4240 nM on Endochitinase B1 [A217G]; 3810 nM on Endochitinase B1 [D175A]; 1370 nM on Endochitinase B1 [E322A]; 1730 nM on Endochitinase B1 [M243A]; 2160 nM on Endochitinase B1 [R301K]. Binding at Endochitinase B1 [T138A] was characterised by a dissociation constant (Kd) of 1210 nM. Also, it took 1100 nM to reach half-maximal inhibition against Endochitinase B1 (IC50).
In turn, `CC(=O)NC(=N)NCCC[C@@H]1NC(=O)[C@H](CCCC(=O)O)NC(=O)[C@H](Cc2c[nH]cn2)N2C(=O)[C@H](C[C@H]2O)NC(=O)[C@H]2CCCN2C1=O` [4-[(1S,4R,10S,13S,16S,18R)-10-{3-[(acetamidomethanimidoyl)amino]propyl}-18-hydroxy-16-(1H-imidazol-4-ylmethyl)-3,9,12,15,20-pentaoxo-2,8,11,14,17-pentaazatricyclo[15.2.1.0^{4,8}]icosan-13-yl]butanoic acid] registered a Ki on Chitinase B of 20 nM. Moreover, the dissociation constant (Kd) was determined as 810 nM on Endochitinase B1; 2840 nM on Endochitinase B1 [A217G]; 3600 nM at Endochitinase B1 [D175A]; 2930 nM on Endochitinase B1 [E322A]; 9390 nM on Endochitinase B1 [M243A]; 1020 nM at Endochitinase B1 [R301K]. Further, the values for the Kd at Endochitinase B1 [T138A] and on Endochitinase B1 [Y245F] were 3040 nM and 5570 nM, respectively. This compound also had an IC50 at Endochitinase B1 of 500 nM.
